From patent publication US20260000079A1, “COMPOSITIONS AND METHODS FOR MODULATING IMMUNITY IN PLANTS” (BOYCE THOMPSON INSTITUTE FOR PLANT RESEARCH, INC., priority 2019, published 2026)

What was measured:
[1] = test system: Arabidopsis root exudates; test: LC-MS of root exudates of ascr #18-treated Arabidopsis seedlings; assay type: in vivo, Arabidopsis thaliana; conditions: for secretion of ascr #18 metabolites via roots: ascr #18-treated wildtype, 6 hours treatment
Method: (§1) Data are average±SEM (n=6), n.d.=not detected. […] Exudates from approximately 40 seedlings were collected in distilled water and pooled. Abundances of ascarosides are shown as the peak area, as measured by LC-MS. Data are average±SEM (n=3); n.d.=not detected. FIGS. 5C and 5D show the relative abundances of ascarosides in root exudates of eight-day old tomato seedlings treated with 10 nM (FIG. 5C) or 1000 nM (FIG. 5D) ascr #18 for 6 hours. Exudates from approximately 10 seedlings were collected in distilled water and pooled. Abundances of ascarosides are shown as the peak area, as measured by LC-MS. Data are average±SEM (n=3); n.d.=not detected. FIG. 5E provides the relative abundances of ascr #10, ascr #1, and ascr #9 in the growth media of eight-day old tomato seedlings supplemented with 1 μM ascr #18. Ten-gram media samples were collected at different time points over a 48 hour period for metabolome extraction. Abundances of ascarosides are shown as the peak area, as measured by LC-MS.
(§2) To test this possibility, root-secreted metabolites of ascr #18- and mock-treated Arabidopsis were compared (FIG. 5A). For this experiment, 10-day old Arabidopsis seedlings were treated in growth media supplemented with ascr #18 for 6 hours prior to collection of exudates from roots submerged in water. […] Analogous results were obtained in experiments with tomato roots (FIG. 5C, 5D).

[2] = test system: Arabidopsis wildtype and ibr10, ech2, ech2ibr10, or acx1acx5 mutants; assay type: in vivo, Arabidopsis thaliana; conditions: roots treated with 1 μM ascr #18
Method: FIG. 3A provides a comparison of peroxisomal β-oxidation (pβo) pathways and associated enzymes involved in the conversion of indole-3-butyric acid (IBA)-to-indole acetic acid (IAA) in Arabidopsis and ascaroside biosynthesis in C. elegans. FIG. 3B provides LC-MS analysis of Arabidopsis seedlings treated with 1 μM ascr #18 for 24 hours before sample extraction, comparing ascr #9 production in wildtype and ibr10, ech2, ech2ibr10, or acx1acx5 mutants. FIG. 3C provides a comparison of ascaroside abundances in Arabidopsis wildtype and acx1acx5 roots treated with 1 μM ascr #18. Data are averages±SEM (n=5); n.d.=not detected. FIG. 3D provides RNAseq analysis of ten day-old Arabidopsis wildtype and acx1acx5 mutant roots, plotted as transcript abundance. Data are averages±s.d (n=6).
Arabidopsis thaliana mutant genotypes in the Col-0 background, ibr10-1, ech2-1, ibr10-1ech2-1, and acx1-2acx5-1, were obtained from Rice University (Houston, TX) (Strader, et al. (2011) Plant Cell 23:984-999; Adham, et al. (2005) Plant J. 41:859-874).
To test whether ascr #18 is metabolized via pβo in plants, Arabidopsis mutants impaired in key enzymes of this pathway were analyzed (FIG. 3B). […] In contrast, two other putative po genes, ibr10 and ech2, a putative enoyl-CoA hydratases (Strader, et al. (2011) Plant Cell 23:984-999; Adham, et al. (2005) Plant J. 41:859-874; Zolman, et al. (2008) Genetics 180(1): 237-51), are not required for ascr #18 metabolism in Arabidopsis. ACXs participate in the […] step of pβo by introducing α,β-unsaturation in the side-chain (Von Reuss, et al. (2012) J. Am. Chem. Soc. 134:1817-1824; Strader, et al. (2011) Plant Cell 23:984-999). […] These observations indicate that ascr #18 metabolism in plants into shorter-chained ascarosides proceeds via pβo, and that ACX1 and/or ACX5 are strictly required for chain shortening of ascr #10, whereas the first chain-shortening step from ascr #18 to ascr #10 may involve additional acyl-CoA oxidases.

tomato root exudates = test: LC-MS of root exudates and growth media of ascr #18-treated tomato seedlings; assay type: in vivo, Solanum lycopersicum
Method: as §1, §2

SMILES | secretion of ascr #18 metabolites via roots [1] | ascaroside levels in ascr #18-treated acx1acx5 mutant compared with wildtype [2] | relative abundance among root-excreted ascr #18 metabolites ([1]; Arabidopsis) | ascarosides in root exudates of acx1acx5 ([1]; acx1acx5 seedlings, 10 nM ascr #18 for 6 hours) | relative abundance among root-excreted ascr #18 metabolites (tomato root exudates)
C[C@H](CCCCC(=O)O)O[C@@H]1O[C@@H](C)[C@H](O)C[C@H]1O [ascr #1] | secretion | not detected | – | – | –
C[C@H](CCCCCCC(=O)O)O[C@@H]1O[C@@H](C)[C@H](O)C[C@H]1O [ascr #10] | secretion | smaller amounts | least abundant | detected | least abundant
